# Laboratory results from US20020048572A1, “Treatment of hypertriglyceridemia and other conditions using LXR modulators” (priority 2000, published 2002).
# Columns and labels:
# Gal4-LXRα = Gal4-LXRα (Homo sapiens, UniProt Q13133); assay: HEK293 Gal4-nuclear receptor chimera luciferase reporter assay; type: cell-based; conditions: T0901317 1 μM, T0314407 5 μM, 20 h
# Source text: (§1) FIG. 7. (A) Dose responses to LXR ligands in an HEK293 transient transfection assay using a wild-type LXRα expression plasmid and a luciferase reporter gene containing two copies of an LXR response element. DMSO treatments were used to derive the basal level of activation. […] HEK293 cells were cotransfected with a luciferase reporter gene containing four copies of the Gal4 DNA-binding site and the various chimeric Gal4 (DNA-binding domain)-nuclear receptor (ligand-binding domain) proteins shown.
# (§2) HEK293 cells were cotransfected with a luciferase reporter gene and the various Gal4-nuclear receptor chimeric constructs shown and a β-galactosidase (β-gal) expression vector for normalization. Transfected cells were treated with the indicated compounds for 20 h before being harvested. Transfection data and luciferase results are normalized to β-gal and expressed as the fold-induction relative to DMSO controls.
# (§3) PXR, a nuclear receptor involved in the CYP3A-mediated metabolism of a diverse collection of xenobiotics, is known to be activated by a large number of synthetic compounds (Jones et al., Mol. Endocrinol. 14:27-39 (2000)).
# Gal4-LXRβ = Gal4-LXRβ (Homo sapiens, UniProt P55055); assay: as above; type: cell-based; conditions: T0901317 1 μM, T0314407 5 μM, 20 h
# Gal4-LXRβ, sequence (P55055 222-460 limits assumed): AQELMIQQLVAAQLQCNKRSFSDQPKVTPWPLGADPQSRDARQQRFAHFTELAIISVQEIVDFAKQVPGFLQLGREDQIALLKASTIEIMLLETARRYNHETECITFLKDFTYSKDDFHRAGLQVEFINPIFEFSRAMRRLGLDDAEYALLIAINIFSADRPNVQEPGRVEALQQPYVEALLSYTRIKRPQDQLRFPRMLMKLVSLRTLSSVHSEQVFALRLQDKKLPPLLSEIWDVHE
# Gal4-LXRβ, sequence (P04386 1-147 partner limits assumed): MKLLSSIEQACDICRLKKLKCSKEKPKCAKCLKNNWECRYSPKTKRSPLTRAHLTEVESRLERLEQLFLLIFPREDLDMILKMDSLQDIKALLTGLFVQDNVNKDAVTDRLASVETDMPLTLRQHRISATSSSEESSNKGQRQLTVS
# Source text: as §1, §2, §3
# C57BL/6 mice = assay: Plasma lipid analysis in C57BL/6 mice; type: in vivo, mouse; conditions: oral treatment
# Source text: FIG. 8. Plasma lipid levels in animals treated with LXR agonist T0901317. The concentrations of (A) plasma triglycerides and (B) HDL-cholesterol for C57BL/6 mice (n=5, for each treatment group, M, males, F, females). (C) Separation of Golden Syrian hamster plasma by fast protein liquid chromatography (FPLC) in combination with analysis of the triglyceride content across PPLC fractions. Lipid data are reported as the mean ±SD for the number of determinations (animals) described in each experiment. Statistical significance (kybd) was defined as P<0.05 (ANOVA using SAS programming statistical test for controls and LXR agonist-treated animals). C57BL/6 mice (Charles River Laboratories) were between 6 and 10 wk old and weighed ˜20-30 g at the initiation of treatment. Golden Syrian Hamsters (Harlan Sprague-Dawley) were between 12 and 16 wk old (80-150 g). Animals were fed regular chow diets containing ˜4% fat and 0.02% cholesterol (PMI Pi-colab 5053 Chow). LXRα and β−/− mice were reared at the University of Texas Southwestern (UTSW) Medical Center at Dallas in accordance with the Institutional Animal Care and Research Advisory Committee at the UTSW Medical Center. Mice at UTSW were maintained on a 12 h light/12 h dark cycle and fed ad libitum a cereal-based mouse chow diet (No. 7001, Harlan Teklad). Plasma was prepared from euthanized mice using standard centrifugation techniques and analyzed for plasma total cholesterol, HDL cholesterol, and triglyceride concentrations using a Hitachi 704 Clinical Analyzer. FPLC of plasma lipoproteins was accomplished using 200 μL aliquots of pooled plasma (from three to five animals) and fractionated on Superose 6 columns (Pharmacia). Cholesterol, triglyceride, and phospholipid concentrations in the fractions were determined enzymatically with reagents from Boehringer, Sigma, and Wako, respectively. Hepatic lipids were extracted and analyzed for triglyceride essentially as described (Bucolo, G. and David, H., Clin. Chem. 19:476-482 (1973); Yokode et al., Science 250:1273-1275 (1990)).
# mouse liver mRNA = assay: Northern blot analysis of hepatic gene expression in treated mice; type: in vivo
# Procedure: FIG. 9. Northern blot analysis. Total RNA was isolated from the tissues indicated from mice (A,B,C) and hamsters (D). The numerical data shown with each figure represents the fold increase (+) or decrease (-) of expression relative to corresponding vehicle-treated controls. (E) HepG2 cells were incubated in culture media with or without cycloheximide (cyclohex). Total RNA extraction and purification for Northern blot analysis was accomplished using the TRI reagent (Molecular Research Center). […] Mouse gene expression was assessed by Northern blot analysis using random primed, ^32P-labeled, cDNA probes that were generated using the primers described in FIG. 11. Hybridization signals were quantified using a phosphoimager (Molecular Dynamics) and standardized against GAPDH controls. Mouse cDNA probes for the numerous genes analyzed were prepared using primers from mouse liver or intestinal cDNA as template. The SREBP-2 cDNA was a gift from J. D. Horton (University of Texas Southwestern Medical Center, Dallas); mouse and hamster CYP7[…]. W. Russell (University of Texas Southwestern Medical Center, Dallas). SCD-1 was a gift from J. Ntambi (University of Wisconsin, Madison), and apoD was kindly provided by […] (University of Quebec, Montreal).
# wild-type mice = assay: Plasma and hepatic lipid analysis in wild-type mice; type: in vivo, mouse; conditions: 7 d
# Procedure: FIG. 10. Agonist T0901317-mediated increases in hepatic and plasma triglyceride levels and lipogenic mRNA requires LXRs. Analysis of the lipid content of livers and plasma from vehicle- and T0901317-created wild-type and LXRα/β-/- mice (n=5 for each of the four groups shown, treatment for 7 d). Pooled plasma (50 μL from each of five mice per group) was fractionated and lipids analyzed as described. Shown are the concentrations for (A) FPLC triglyceride, (B) FPLC phospholipid, and (C) hepatic triglyceride. (D) Northern blot analysis of hepatic SREEP-I, SREBP-2, SCD-1, FAS, and ACC mRNA levels.
# C57BL/6 mice (Charles River Laboratories) were between 6 and 10 wk old and weighed ˜20-30 g at the initiation of treatment. Golden Syrian Hamsters (Harlan Sprague-Dawley) were between 12 and 16 wk old (80-150 g). Animals were fed regular chow diets containing ˜4% fat and 0.02% cholesterol (PMI Pi-colab 5053 Chow). LXRα and β−/− mice were reared at the University of Texas Southwestern (UTSW) Medical Center at Dallas in accordance with the Institutional Animal Care and Research Advisory Committee at the UTSW Medical Center. Mice at UTSW were maintained on a 12 h light/12 h dark cycle and fed ad libitum a cereal-based mouse chow diet (No. 7001, Harlan Teklad).
# Plasma was prepared from euthanized mice using standard centrifugation techniques and analyzed for plasma total cholesterol, HDL cholesterol, and triglyceride concentrations using a Hitachi 704 Clinical Analyzer. FPLC of plasma lipoproteins was accomplished using 200 μL aliquots of pooled plasma (from three to five animals) and fractionated on Superose 6 columns (Pharmacia). Cholesterol, triglyceride, and phospholipid concentrations in the fractions were determined enzymatically with reagents from Boehringer, Sigma, and Wako, respectively. Hepatic lipids were extracted and analyzed for triglyceride essentially as described (Bucolo, G. and David, H., Clin. Chem. 19:476-482 (1973); Yokode et al., Science 250:1273-1275 (1990)).
# Gal4-LXRα, sequence (Q13133 209-447 limits assumed): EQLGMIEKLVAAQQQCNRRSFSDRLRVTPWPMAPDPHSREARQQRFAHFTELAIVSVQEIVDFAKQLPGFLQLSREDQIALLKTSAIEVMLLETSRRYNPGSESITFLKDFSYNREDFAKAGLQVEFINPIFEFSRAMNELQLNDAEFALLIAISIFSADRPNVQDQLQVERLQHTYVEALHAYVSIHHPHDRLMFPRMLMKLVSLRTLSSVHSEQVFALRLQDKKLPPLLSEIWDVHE
# Gal4-LXRα, sequence (P04386 1-147 partner limits assumed): as the sequence (P04386 1-147 partner limits assumed) above
compound,measurement,setting,value
"O=S(=O)(c1ccccc1)N(CC(F)(F)F)c1ccc(C(O)(C(F)(F)F)C(F)(F)F)cc1 [T0901317, N-(2,2,2-trifluoro-ethyl)-N-[4-(2,2,2-trifluoro-1-hydroxy-1-trifluoromethyl-ethyl)-phenyl]-benzenesulfonamide]",transcriptional activation of Gal4-LXRα,Gal4-LXRα,highest activity
same,transactivation of chimeric Gal4-LXRβ,Gal4-LXRβ,transactivation was also noted
same,HDL-phospholipid,C57BL/6 mice,comparable increases
same,plasma total cholesterol (mainly HDL cholesterol),C57BL/6 mice,comparable increases
same,plasma triglycerides,C57BL/6 mice,significant elevations
same,plasma very low density lipoproteins (VLDL) triglycerides,C57BL/6 mice,Increases
same,"apoAI, apoAII, apoD, apoE, MTP and NaTCP gene expression",mouse liver mRNA,remained unaffected
same,"steady-state mRNA levels of CYP7A1, SCD-1, and SREBP-1",mouse liver mRNA,increased in a dose-dependent manner
same,transcript level of 3-hydroxy-3-methylglutaryl coenzyme A synthase (HMG CoA S),mouse liver mRNA,consistently reduced
same,transcript level of squalene synthase (SQS),mouse liver mRNA,consistently reduced
same,"SR-BI, apoCIII and DCAT transcript levels",mouse liver mRNA; data not shown,did not appear to vary in level
same,hepatic ACC gene activity (Northern blot),mouse liver mRNA; fold increase vs vehicle,twofold
same,hepatic FAS gene activity (Northern blot),mouse liver mRNA; fold increase vs vehicle,threefold
same,hepatic SCD-1 gene activity (Northern blot),mouse liver mRNA; fold increase vs vehicle,up to ninefold
same,plasma VLDL-triglyceride (FPLC),"wild-type mice; wild type mice, fold increase",threefold
same,total plasma triglycerides,wild-type mice; wild-type mice,225.7 ± 7 mg/dL
same,hepatic triglyceride,"wild-type mice; wild-type mice, fold vs vehicle-treated controls",fivefold
